The values below come from ChEMBL document CHEMBL2440087, “Novel complex crystal structure of prolyl hydroxylase domain-containing protein 2 (PHD2): 2,8-Diazaspiro[4.5]decan-1-ones as potent, orally bioavailable PHD2 inhibitors” (Bioorg Med Chem, 2013).

Data set [1] has as its system Mus musculus. Briefly: Dose normalized AUC in C57BL/6 mouse at 10 mg/kg, po. In kind it is ADME, organism-based. The arrangement: dose 10 mg/kg, route oral. To be noted: in vivo.
In data set [2] the test system is Mus musculus. Briefly: Dose normalized AUC (0 to t) in C57BL/6 mouse at 10 mg/kg, po. It is filed as ADME, organism-based. Details: dose 10 mg/kg, route oral. To be noted: in vivo.

In the case of `Cc1cccnc1CN1CCC2(CC1)CCN(c1ccc(-c3ccc(C(=O)O)cc3)cc1)C2=O`, the AUC/dose in the data set on Mus musculus [1] is 634 ng·h/mL/mg/kg. Turning to `Cc1cc(CCC(=O)O)cnc1CN1CCC2(CC1)CCN(c1ccc(-c3ccccc3)cc1)C2=O`, the AUCt/dose with Mus musculus [2] was determined as 22.6 ng·h/mL/mg/kg.
